Values after ≈ are worked out from the molar mass of the structure shown. Like-named read-outs stand apart in the source and are kept apart here.
Legend:
[1] = Parallel artificial membrane permeability assay (PAMPA); assay type: in vitro ADME; conditions: for Ratio of mean permeability (×10^4 cm/s) related to low permeability control (atenolol): Table 7
LZK [2] = target: T1, LZK (Homo sapiens, UniProt O43283); assay: LZK degradation (doxycycline-induced LZK expression, immunoblot) in CAL33 cells; assay type: cell-based; design: V5 (named only in the vector); expressed in transfected cells; host or cells: CAL33 HNSCC cells, lentiviral T-REx system, induced with doxycycline; conditions: for LZK degradation / dox-induced LZK expression: CAL33, doxycycline 48 hours, LZK PROTAC 24 hours, 0-10 μM; for dox-induced LZK expression at high concentrations: 24 hours
T1 sequence (O43283 1-966): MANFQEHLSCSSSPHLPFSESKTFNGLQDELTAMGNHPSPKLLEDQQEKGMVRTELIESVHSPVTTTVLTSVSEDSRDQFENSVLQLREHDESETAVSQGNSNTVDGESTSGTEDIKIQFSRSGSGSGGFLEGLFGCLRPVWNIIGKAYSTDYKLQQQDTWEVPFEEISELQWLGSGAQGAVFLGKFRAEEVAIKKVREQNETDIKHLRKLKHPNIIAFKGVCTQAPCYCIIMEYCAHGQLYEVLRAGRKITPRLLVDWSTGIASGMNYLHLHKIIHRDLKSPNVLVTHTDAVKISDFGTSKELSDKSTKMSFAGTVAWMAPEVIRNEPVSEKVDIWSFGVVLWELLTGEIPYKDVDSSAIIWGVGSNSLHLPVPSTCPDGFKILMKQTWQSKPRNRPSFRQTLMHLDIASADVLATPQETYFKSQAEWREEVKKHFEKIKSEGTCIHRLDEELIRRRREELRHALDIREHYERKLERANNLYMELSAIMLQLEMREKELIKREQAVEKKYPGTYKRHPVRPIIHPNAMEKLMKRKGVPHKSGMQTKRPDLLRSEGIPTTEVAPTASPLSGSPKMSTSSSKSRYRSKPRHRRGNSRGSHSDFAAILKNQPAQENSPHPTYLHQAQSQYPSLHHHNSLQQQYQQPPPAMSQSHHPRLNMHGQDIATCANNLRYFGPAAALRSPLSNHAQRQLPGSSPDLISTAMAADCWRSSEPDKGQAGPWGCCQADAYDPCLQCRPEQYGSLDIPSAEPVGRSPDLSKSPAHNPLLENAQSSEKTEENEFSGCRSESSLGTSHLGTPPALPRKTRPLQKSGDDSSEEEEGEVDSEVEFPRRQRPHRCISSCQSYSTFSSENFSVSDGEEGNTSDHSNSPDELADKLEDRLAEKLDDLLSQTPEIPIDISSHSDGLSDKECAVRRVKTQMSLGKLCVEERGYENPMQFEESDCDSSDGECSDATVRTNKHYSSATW
Excerpt: (§1) The ViraPower HiPerform T-REx Gateway Expression System (Invitrogen) was used to generate cells with tetracycline-inducible expression of LZK. In brief, wild-type (WT) or drug-resistant mutant (Q240S) LZK (cloned into pLenti6.3/TO/V5-DEST vector) and pLenti3.3/TR (for tetracycline repressor expression) were transfected into 293FT cells using Lipofectamine 2000 to generate lentiviral stock. Cell lines were generated by antibiotic selection (blasticidin [Gibco] and geneticin [Gibco]). Doxycycline (Sigma-Aldrich) was used at 1 μg/mL to induce LZK expression.
(§2) Generally, cells were plated in six-well or 35-mm plates for 24 hours, after which doxycycline was added or treatment with specific inhibitor was administered using […] for 48 hours. After appropriate treatment time, cells were washed with ice-cold phosphate-buffered saline without Ca and Mg (Quality Biological) and then lysed on ice with RIPA buffer (50 mM NaCl, 1.0% o IGEPAL® CA-630, 0.5% o sodium deoxycholate, 0.10% SDS, 50 mM Tris, pH 8.0) (Sigma-Aldrich) supplemented with protease inhibitor tablet (Sigma-Aldrich) and phosphatase inhibitor cocktails 2 and 3 (Sigma-Aldrich) followed by centrifugation at 15,000 rpm for 10 minutes at 4° C. Protein concentrations were determined from the cell lysate by using 660 nm Protein Assay Reagent (Pierce). Cell extracts were denatured, subjected to SDS-PAGE, transferred to PVDF membranes (Bio-Rad) and blocked for 2 hours using 5 bovine serum albumin (BSA) in phosphate-buffered saline and 0.10 Tween® 20 (PBS-T). The membranes were incubated with the specific antibodies overnight in […] at 4° C. followed by a 1 hour incubation with the appropriate horseradish peroxidase-conjugated secondary antibodies and signal was detected by chemiluminescence (Thermo Fisher).

LZK [3] = target: T1, LZK; assay: LZK inhibition in cells monitored by downstream JNK phosphorylation (dox-induced LZK); assay type: cell-based; design: V5 (named only in the vector); expressed in transfected cells; host or cells: CAL33 HNSCC cells, lentiviral T-REx system, induced with doxycycline
Excerpt: as §1, §2
A PathScan® Phospho-SAPK/JNK (Thr183/Tyr185) Sandwich ELISA Assay (Cell Signaling Technology) was used for ELISA assays following the manufacturer's protocol. In general, 500,000 cells were plated and treated with doxycycline the following day where appropriate and incubated at 37° C. for 48 hours. Cells were treated with the drug compound or control in 5% FBS media for 1 hour. After appropriate treatment time, cells were lysed on ice with 1x Cell Lysis Buffer (Cell Signaling Technology) supplemented with phosphatase and protease inhibitors (Sigma). Each diluted cell lysate was added to Phospho-SAPK/JNK (Thr183/Tyr185)Rabbit mAb Coated microwells in triplicate and incubated overnight at 4° C. Samples were treated with the following antibodies and incubated at 37° C. for 1 hour and 30 minutes, respectively: Detection Antibody and HRP-Linked secondary antibody. Samples were washed between treatments using 1× Wash Buffer according to the manufacturer's protocol. TMB substrate was added to each well and incubated at 37° C. for 10 minutes. Following this, STOPsolution was added to each well and absorbance was measured at 450 nm using iMark™ Microplate Absorbance Reader (Bio-Rad). Graphs display relative phospho-JNK levels.

Kinetic solubility assay = assay type: physicochemical; conditions: kinetic from dmso stock
[4] = Rat liver microsomal (RLM) stability assay; assay type: in vitro ADME; conditions: rat liver microsomes; read-out: RLM Stability (t1/2)

| Compound | Ratio of mean permeability (×10^4 cm/s) related to low permeability control (atenolol) [1] | other results |
| --- | --- | --- |
| Cc1ncsc1-c1ccc([C@H](C)NC(=O)[C@@H]2C[C@@H](O)CN2C(=O)[C@@H](NC(=O)[C@H]2CC[C@@H]2C(=O)N2CCC(c3cc(Nc4cc(C#N)ccn4)nc(N4CCC(F)(F)C4)c3)CC2)C(C)(C)C)cc1 (single isomer, unassigned) [Compound 25] | 0.43 |  |
| Cc1ncsc1-c1ccc([C@H](C)NC(=O)[C@@H]2C[C@@H](O)CN2C(=O)[C@@H](NC(=O)[C@H]2CC[C@H]2C(=O)N2CCC(c3cc(Nc4cc(C#N)ccn4)nc(N4CCC(F)(F)C4)c3)CC2)C(C)(C)C)cc1 (single isomer, unassigned) [Compound 26] | 1.47 |  |
| Cc1ncsc1-c1ccc([C@H](C)NC(=O)[C@@H]2C[C@@H](O)CN2C(=O)[C@@H](NC(=O)CCCCCCC(=O)N2CCC(c3cc(Nc4cc(C(F)(F)F)ccn4)nc(N4CCC(F)(F)C4)c3)CC2)C(C)(C)C)cc1 [Compound 4] |  | LZK degradation / dox-induced LZK expression (LZK [2]): ineffective at degrading LZK; dox-induced LZK expression at high concentrations (LZK [2]): slightly decreased dox-induced LZK expression |
| O=C(CCCCCCC(=O)N1CCC(c2cc(Nc3cc(C(F)(F)F)ccn3)nc(N3CCC(F)(F)C3)c2)CC1)NCCCCNC(=O)CNc1cccc2c1C(=O)N(C1CCC(=O)NC1=O)C2=O (stereo not shown) [Compound 5] |  | JNK signaling inhibition by targeted degraders (LZK [3]; CAL33 cells induced with doxycycline, 0-10 μM): inhibited LZK; LZK degradation / dox-induced LZK expression (LZK [2]): ineffective at degrading LZK; dox-induced LZK expression at high concentrations (LZK [2]): slightly decreased dox-induced LZK expression |
| Cc1ncsc1-c1ccc([C@H](C)NC(=O)[C@@H]2C[C@@H](O)CN2C(=O)[C@@H](NC(=O)c2cncc(C(=O)N3CCC(c4cc(Nc5cc(C#N)ccn5)nc(N5CCC(F)(F)C5)c4)CC3)c2)C(C)(C)C)cc1 [Compound 7] |  | solubility (Kinetic solubility assay): 26 µg/mL (≈ 27.1 µM); Papp ([1]; pH 7.4): < 1 ×10⁻⁶ cm/s; half-life [4]: > 30 min |
| Cc1ncsc1-c1ccc([C@H](C)NC(=O)[C@@H]2C[C@@H](O)CN2C(=O)[C@@H](NCc2cccc(CN3CCC(c4cc(Nc5cc(C#N)ccn5)nc(N5CCC(F)(F)C5)c4)CC3)n2)C(C)(C)C)cc1 [Compound 9] | −0.46 |  |
| Cc1ncsc1-c1ccc([C@H](C)NC(=O)[C@@H]2C[C@@H](O)CN2C(=O)[C@@H](NCc2ccc(C(=O)N3CCC(c4cc(Nc5cc(C#N)ccn5)nc(N5CCC(F)(F)C5)c4)CC3)cc2)C(C)(C)C)cc1 [Compound 13] | 1.31 |  |
| Cc1ncsc1-c1ccc([C@H](C)NC(=O)[C@@H]2C[C@@H](O)CN2C(=O)[C@@H](NC(=O)c2ccc(C(=O)N3CCC(c4cc(Nc5cc(C#N)ccn5)nc(N5CCC(F)(F)C5)c4)CC3)cc2)C(C)(C)C)cc1 [Compound 15] | −0.14 |  |
| Cc1ncsc1-c1ccc([C@H](C)NC(=O)[C@@H]2C[C@@H](O)CN2C(=O)[C@@H](NC(=O)c2cc(C(=O)N3CCC(c4cc(Nc5cc(C#N)ccn5)nc(N5CCC(F)(F)C5)c4)CC3)ncn2)C(C)(C)C)cc1 [Compound 20] | −0.01 |  |
| Cc1ncsc1-c1ccc([C@H](C)NC(=O)[C@@H]2C[C@@H](O)CN2C(=O)[C@@H](NC(=O)c2ccc(C(=O)N3CCC(c4cc(Nc5cc(C#N)ccn5)nc(N5CCC(F)(F)C5)c4)CC3)nn2)C(C)(C)C)cc1 [Compound 21] | −0.11 |  |
| Cc1ncsc1-c1ccc([C@H](C)NC(=O)[C@@H]2C[C@@H](O)CN2C(=O)[C@@H](NC(=O)[C@H](CCC(=O)N2CCC(c3cc(Nc4cc(C#N)ccn4)nc(N4CCC(F)(F)C4)c3)CC2)NC(=O)C(N)CCCNC(=N)N)C(C)(C)C)cc1 (stereo partly shown) [Compound 29] | 6.74 |  |
| C[C@@H](C(=O)N[C@H](C(=O)N1C[C@@H](NC(=O)CCCCCCC(=O)N2CCC(c3cc(Nc4cc(C#N)ccn4)nc(N4CCC(F)(F)C4)c3)CC2)C[C@H]1C(=O)N[C@@H]1CCCc2ccccc21)C1CCCCC1)N(C)C(=O)OC(C)(C)C [Compound 30] | 0.05 | Papp ([1]; Table 7, read-out: Mean permeability): 0.0001 ×10⁻⁶ cm/s; LZK degradation / dox-induced LZK expression (LZK [2]): did not degrade LZK |
| FC1(F)CCN(c2cc(C3CCNCC3)cc(Nc3cc(C(F)(F)F)ccn3)n2)C1 [LZK inhibitor 1] |  | LZK inhibition in cells, measured by inhibition of downstream JNK pathway activation (LZK [3]; dox-inducible LZK in CAL33 cells): poor LZK inhibitor in cells |

The next lines start with results.

| Ratio of mean permeability (×10^4 cm/s) related to low permeability control (atenolol) [1] | Compound | other results |
| --- | --- | --- |
| 0.61 | Cc1ncsc1-c1ccc([C@H](C)NC(=O)[C@@H]2C[C@@H](O)CN2C(=O)[C@@H](NC(=O)CCCCC(=O)N2CCC(c3cc(Nc4cc(C#N)ccn4)nc(N4CCC(F)(F)C4)c3)CC2)C(C)(C)C)cc1 [Compound 12] |  |
| −0.51 | Cc1ncsc1-c1ccc([C@H](C)NC(=O)[C@@H]2C[C@@H](O)CN2C(=O)[C@@H](NC(=O)CCC(=O)N2CCC(c3cc(Nc4cc(C#N)ccn4)nc(N4CCC(F)(F)C4)c3)CC2)C(C)(C)C)cc1 [Compound 14] |  |
| 6.74 | Cc1ncsc1-c1ccc([C@H](C)NC(=O)[C@@H]2C[C@@H](O)CN2C(=O)[C@@H](NC(=O)[C@H]2C[C@H](C(=O)N3CCC(c4cc(Nc5cc(C#N)ccn5)nc(N5CCC(F)(F)C5)c4)CC3)C2)C(C)(C)C)cc1 [Compound 24] |  |
| 0.01 | Cc1ncsc1-c1ccc([C@H](C)NC(=O)[C@@H]2C[C@@H](O)CN2C(=O)[C@@H](NC(=O)N2CCC(c3cc(Nc4cc(C#N)ccn4)nc(N4CCC(F)(F)C4)c3)CC2)C(C)(C)C)cc1 [Compound 27] |  |
| −1.86 | Cc1ncsc1-c1ccc([C@H](C)NC(=O)[C@@H]2C[C@@H](O)CN2C(=O)[C@@H](NCC(=O)N2CCC(c3cc(Nc4cc(C#N)ccn4)nc(N4CCC(F)(F)C4)c3)CC2)C(C)(C)C)cc1 [Compound 28] |  |

From US20240190838A1, “LZK-TARGETING DEGRADERS AND METHODS OF USE” (The U.S.A., as represented by the Secretary, Department of …, priority 2020, published 2024)
